Laboratory results published in US20220062262A1, “GSNO REDUCTASE INHIBITOR AS AN ADJUNCT THERAPY WITH REMOTE ISCHEMIC CONDITIONING AND THROMBOLYTIC REPERFUSION THERAPIES IN STROKE” (KING ABDULAZIZ UNIVERSITY, priority 2020, published 2022).

Key:
[1] = tested on: pMCAL-stroke (permanent occlusion of distal MCA trunk); test: Permanent MCA occlusion (pMCAo/pMCAL) stroke model in adult male and ovariectomized female mice; assay type: in vivo; details: 2.5 mg/kg IV 1 h after stroke, repeated daily for 2 days, males and OVX-females
Procedure: The procedure for pMCAo was performed in mice as reported by Hoda et al. (Stroke 2012, 43(10):2794-2799). Briefly, under anesthesia, the junction of left zygomatic arch and squamous bone was drilled to make a 2-3 mm burr hole to expose the main trunk of MCA. The left MCA distal to the lenticulostriate branches was electrocauterized carefully without bleeding. The wound was closed, and mice were put under post-op recovery as described above. Sham-operated group underwent similar surgical procedures but without electrocauterization. Cortical LDF (Perimed Inc, Sweden) was performed to confirm the induction of stroke in anesthetized mice. Briefly, mice were anesthetized as above and a shallow indent was made in the parietal skull using a low-speed drill to place the LDF probe holder (PH07-6, Perimed Inc) aligning the holder hole at the stereotaxic coordinates (AP: 2-mm and lateral 3-mm with respect to bregma). The needle of LDF-probe (PH407, Perimed Inc) was inserted into the probe holder and the signal was recorded to confirm a significant drop in CBF following stroke. Mice were anesthetized as above, body temperature was maintained at 37±0.5 ° C., the skull was shaved, and a midline skin incision was made to primarily expose the MCA region. Perfusion images were acquired using PeriCam high resolution LASCA-Imager (PSI-Z system, Perimed Inc.) with a 70-mW built-in laser diode for illumination and 1388×1038 pixels CCD camera installed 10 cm above the skull (speed 19 Hz, and exposure time 6 mSec, 1.3 x 1.3 cm). Acquired video and images were analyzed for the dynamic changes in CBF. Overall perfusion of the ipsilateral ischemic hemisphere was determined, normalized with the equal size of region of interest (ROI) from the uninjured contralateral hemisphere and the relative CBF was calculated. […] Therefore, larger white area indicates higher injury and infarction volume. […] Performance of each mouse on the narrow beam was quantified by measuring the time it took for the mouse to traverse the 100-cm distance on the narrow beam and the number of foot slips that occurred in each trial. […]

[2] = tested on: tMCAo stroke in STZ-induced diabetic mice; test: Reperfused tMCAo stroke model in STZ-induced diabetic male mice, with or without RIC therapy; assay type: in vivo; details: for brain tissue oxygenation (PbtO2): 6 h post-reperfusion; for % infarct volume / % swelling / mean NDS: 24 h post-stroke
Excerpt: The tMCAo surgical procedure is similar to TE-stroke surgery, however, the transient occlusion is achieved using a suture instead of a clot as reported by Hoda et al (supra). Briefly, a 6-0 monofilament suture with ˜3-mm silicone-coated tip designed to induce tMCAo in mice (Doccol Corp, USA) was introduced into the ICA via an ECA stump, directed and gently advanced into the MCA region until the suture was wedged to occlude the proximal stem of MCA. The occlusion was maintained prior to withdrawing the filament after […], the ECA- arteriotomy was ligated and the reperfusion was allowed following suture withdrawal. The sham-operated group underwent similar procedures without occlusion, and mice recovered as above.
TTC is a white powder and the solution remains colorless, which is reduced to red 1,3,5-triphenylformazan (TPF) by the enzymatic action of various dehydrogenases primarily mitochondrial dehydrogenase from the living tissues, while the core remains as white. Therefore, larger white area indicates higher injury and infarction volume. After performing ATT, mice were overdosed and deeply anesthetized with high isofluorane (5%). Brains were very quickly perfused with cold 25 ml of 0.01 M phosphate-buffered saline (PBS), harvested fresh and immediately placed in a metallic mouse brain matrix. Looking at the infarcted area, 5 blades were placed in alternate gaps to cut and obtain […] coronal slices. Sections were individually placed in a 35-mm dish containing pre-warmed (37° C.) 3-ml of 5% TTC in PBS (Sigma) for 20-25 minutes at 37° C., followed by 2× washing with cold PBS and fixation with 10% formalin. In order to image, fixed sections were taken out of the dish and placed in order on a high-resolution Cannon Scanner. After scanning, images were cropped and saved for analysis. Corrected infarct volume was estimated using gray scale image and Scion Image software and presented as the Corrected % infarct volume normalized to the uninjured side.
Diabetes was induced in adult male mice (14±1 weeks of age) as confirmed after 7 days of STZ-injection, followed by tMCAo stroke surgery at 3 weeks post-STZ injection. Stroke was induced with 60-min suture occlusion followed by reperfusion with suture withdrawal. GRI therapy or vehicle was IV-infused 10-min prior to reperfusion and RIC therapy/ RIC-mock was performed 1 h after reperfusion. […] PbtO2 was measured at 6h post-reperfusion (N=6/gp) using a 50-um thick oxygen sensor integrated to an UniAmp multi-channel system (Unisense, Denmark). Measurement signal was averaged for 3 min during a period of stable output as shown in the representative real-time electrogram traces in FIGS. 9A-9D. FIG. 9A is representative of a mouse treated with vehicle and receiving mock RIC. FIG. 9B is representative of a mouse receiving vehicle and RIC therapy. FIG. 9C is representative of a mouse receiving GRI therapy and mock RIC. FIG. 9D is representative of a mouse receiving GRI therapy and RIC therapy.
Diabetic adult male mice (as described in Example 4) were subjected to tMCAo (N=10/gp) with or without GRI and/or RIC-therapies and outcome measures were performed at 24h post-stroke.

[3] = low-dose GRI combined with RIC therapy, vs all other 3 groups

Cc1cc(C(N)=O)ccc1-n1c(CCC(=O)O)ccc1-c1ccc(-n2ccnc2)cc1 [GRI therapy, N6022]
restoration of CBF (% CBF, LSCI) vs vehicle ([1]; 72 h post-pMCAo): improved restoration of CBF in both sexes significantly
infarct progression (TTC infarct volume) ([1]; 72 h post-stroke): significantly prevented the infarct progression sex-independently in both groups
motor function, narrow beam walk test (time to traverse, foot slips) ([1]; 72 h post-stroke): equally effective in improving motor function in both sexes
brain tissue oxygenation (PbtO2) ([2]; GRI IV 10 min prior to reperfusion followed by RIC therapy 1 h after reperfusion): showed enhanced efficacy of both, GRI and RIC-therapies, in improving benefits of reperfusion to increase PbtO2
brain tissue oxygenation (PbtO2) ([2]; GRI alone (RIC-mock), IV 10 min prior to reperfusion, vs vehicle RIC-mock): improved PbtO2 significantly
% infarct volume ([2]; GRI singly (RIC-mock), N=10/gp): did not improve
% swelling ([2]; GRI singly (RIC-mock), N=10/gp): did not improve
mean NDS ([2]; GRI singly (RIC-mock), N=10/gp): did not improve
% infarct volume [2, 3]: significantly improved
% swelling [2, 3]: significantly improved
mean NDS [2, 3]: significantly improved
